≈ marks a conversion by molar mass, not a printed value.
Key:
[1] = test system: HCMV recombinant mutant virus (RV145); assay: HCMV microtiter plate assay (beta-glucuronidase reporter); type: cell-based, Human Cytomegalovirus; settings: for IC50: Human betaherpesvirus 5, Fibroblast, read-out: IC50 (ug/ml) HCMV; for IC50 (ug/ml) HCMV: HCMV in human foreskin fibroblasts
Procedure, shortened: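 Replication was read out as virus-encoded β-glucuronidase activity, measured with a chromogenic or fluorogenic glucuronide substrate in cell lysates at 96 h post-infection. Infection of human foreskin fibroblasts with RV145 took place with compound present. IC50 was derived from a range of inhibitor amounts.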

HSV-1 = assay: HSV Antiviral (ELISA) assay; type: cell-based; settings: for IC50: Human alphaherpesvirus 1, HSV-1 in Vero cells, read-out: IC50 (ug/ml) HSV; for IC50 (ug/ml) HSV: HSV-1 in Vero cells
Procedure, shortened: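 Replication measured as glycoprotein D signal in fixed cells: anti-gD antibody plus β-galactosidase-linked secondary, fluorogenic substrate read at 365/450 nm. Vero cells (2% FBS DMEM) received compound 30 min pre-infection, HSV-1 MOI 0.006, ~24 h incubation; IC50 relative to no-compound fluorescence.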

VZV strain Ellen = assay: VZV Antiviral (ELISA) assay; type: cell-based; settings: for IC50: Human alphaherpesvirus 3, VZV strain Ellen in HFF cells, read-out: IC50 (ug/ml) VZV; for IC50 (ug/ml) VZV / % inhibition 10 ug/ml VZV: VZV strain Ellen in HFF cells; for % inhibition 10 ug/ml VZV: at 10 ug/ml; for inhibition at 10 µg/mL: Human alphaherpesvirus 3, read-out: % inhibition 10 ug/ml VZV, at 10 ug/ml, VZV strain Ellen in HFF cells
Procedure, shortened: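 Low-MOI (<0.1) Ellen infection of HFF overnight; cell mix plated 3.5×10^4/well with compound, DMEM + 2% FBS, 3 d, 37° C, 5% CO2. Fix, anti-gpII mAb ELISA, MUG substrate, fluorescence. IC50 vs compound-free signal.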

Row | Compound | IC50 [1] [µg/mL] | IC50 (HSV-1) [µg/mL] | IC50 (VZV strain Ellen) [µg/mL] | IC50 (ug/ml) HCMV [1] [µg/mL] | IC50 (ug/ml) HSV (HSV-1) [µg/mL] | IC50 (ug/ml) VZV (VZV strain Ellen) [µg/mL] | % inhibition 10 ug/ml VZV (VZV strain Ellen) [%] | inhibition at 10 µg/mL (VZV strain Ellen) [%]
1 | CCCCc1nc(C(=O)Nc2ccc(NC(=S)Nc3ccc(Cl)c(C(F)(F)F)c3)cc2)cs1 [Example 1135, 2-Butyl-thiazole-4-carboxylic acid {4-[3-(4-chloro-3-trifluoromethyl-phenyl)-thioureido]-phenyl}-amide] | 1.3 (≈ 2.53 µM) | 3.6 (≈ 7.02 µM) | 7.5 (≈ 14.6 µM) |  |  |  |  | 
2 | O=C(Nc1ccc(NC(=S)Nc2cc(Cl)cc(Cl)c2)cc1)c1csc(-c2ccccc2)n1 [Example 1142, 2-Phenyl-thiazole-4-carboxylic acid {4-[3-(3,5-dichloro-phenyl)-thioureido]-phenyl}-amide] | 1.8 (≈ 3.6 µM) | > 10 | > 10 |  |  |  |  | 
3 | O=C(Nc1ccc(NC(=S)NCCc2ccc(Br)cc2)cc1)c1csnn1 [Example 606] |  |  |  | 0.0023 (≈ 0.00497 µM) | >10 | >10 |  | 
4 | CCN(CC)CC(=O)Nc1ccc(NC(=S)Nc2ccc(NC(=O)c3ccco3)cc2)cc1Cl [Example 413] |  |  |  | 0.081 (≈ 0.162 µM) | 5 (≈ 10 µM) | 5 (≈ 10 µM) | 103 | 
5 | O=C(Nc1ccc(NC(=S)Nc2ccccc2)cc1)c1csnn1 [Example 912, [1,2,3]Thiadiazole-4-carboxylic acid [4-(3-phenyl-thioureido)-phenyl]-amide] | 0.16 (≈ 0.45 µM) | > 10 | > 10 |  |  |  |  | 0
6 | CC(NC(=S)Nc1ccc(NC(=O)c2ccc3ccccc3n2)cc1)c1ccc(F)cc1 (stereo not drawn) [Example 796] |  |  |  | 4 (≈ 9 µM) | >10 | >7.5 |  | 
7 | O=C(Nc1ccc(NC(=S)Nc2ccc(F)c(Cl)c2)cc1)c1ccco1 [Example 969, Furan-2-carboxylic acid {4-[3-(3-chloro-4-fluoro-phenyl)-thioureido]-phenyl}-amide] | 0.03 (≈ 0.077 µM) | > 10 | > 10 |  |  |  |  | 40
8 | O=C(Nc1ccc(NC(=S)Nc2ccccc2Cl)cc1)c1csnn1 [Example 1006, [1,2,3]Thiadiazole-4-carboxylic acid {4-[3-(2-chloro-phenyl)-thioureido]-phenyl}-amide] | 0.2 (≈ 0.513 µM) | > 10 | > 10 |  |  |  |  | 13
9 | COc1cccc(NC(=S)Nc2ccc(NC(=O)c3ccco3)cc2)c1 [Example 473] |  |  |  | 0.3 (≈ 0.816 µM) | >10 | >10 | 40 | 
10 | CC(O)c1cccc(NC(=S)Nc2ccc(NC(=O)c3csnn3)cc2)c1 (stereo not drawn) [Example 464] |  |  |  | 0.15 (≈ 0.375 µM) | >10 | >10 | 25 | 
11 | CC(NC(=S)Nc1ccc(NC(=O)c2cccs2)cc1)c1ccc(F)cc1 (stereo not drawn) [Example 1128, Thiophene-2-carboxylic acid (4-{3-[1-(4-fluoro-phenyl)-ethyl]-thioureido}-phenyl)-amide] | 1.3 (≈ 3.25 µM) | > 10 | > 10 |  |  |  |  | 
12 | CC(NC(=S)Nc1ccc(NC(=O)c2ccco2)cc1)c1ccc(F)cc1 (stereo not drawn) [Example 592] |  |  |  | 0.049 (≈ 0.128 µM) | >10 | 2 (≈ 5.22 µM) |  | 
13 | Cc1ccc(NC(=S)Nc2ccc(NC(=O)c3csnn3)cc2)cc1Cl [Example 230] |  |  |  | 0.015 (≈ 0.0371 µM) | >10 | >10 |  | 
14 | O=C(Nc1ccc(NC(=S)NCc2cccc(Cl)c2)cc1)c1ccco1 [Example 510] |  |  |  | 0.04 (≈ 0.104 µM) | 8 (≈ 20.7 µM) | >10 | 19 | 
15 | CCOC(=O)Nc1ccc(NC(=S)Nc2ccc(NC(=O)c3ccco3)cc2)cc1Cl [Example 398] |  |  |  | 0.13 (≈ 0.283 µM) | >10 | >10 | 5 | 
16 | CSc1ccc(NC(=S)Nc2ccc(NC(=O)c3ccco3)cc2)cc1Cl [Example 897, Furan-2-carboxylic acid {4-[3-(3-chloro-4-methylsulfanyl-phenyl)-thioureido]-phenyl}-amide] | 0.037 (≈ 0.0885 µM) | > 10 | > 10 |  |  |  |  | 62
17 | O=C(Nc1ccc(NC(=S)Nc2cc(Cl)ccc2Cl)cc1)c1csnn1 [Example 866, [1,2,3,]Thiadiazole-4-carboxylic acid {4-[3-(2,5-dichloro-phenyl)-thioureido]-phenyl}-amide] |  |  |  | 0.035 (≈ 0.0825 µM) | >10 | >10 | 50 | 
18 | COc1cc(C)c(Cl)cc1NC(=S)Nc1ccc(NC(=O)c2ccccn2)cc1 [Example 352] |  |  |  | 0.6 (≈ 1.41 µM) | 3 (≈ 7.03 µM) | >10 | 51 | 
19 | O=C(Nc1ccc(NC(=S)Nc2ccc(Cl)c(C(F)(F)F)c2)cc1)c1csc(-c2ccccc2)n1 [Example 1141, 2-Phenyl-thiazole-4-carboxylic acid {4-[3-(4-chloro-3-trifluoromethyl-phenyl)-thioureido]-phenyl}-amide] | 1.9 (≈ 3.56 µM) | > 10 | > 10 |  |  |  |  | 
20 | CC(NC(=S)Nc1ccc(NC(=O)c2csnn2)cc1)c1ccc(F)cc1 (stereo not drawn) [Example 565] |  |  |  | 0.01 (≈ 0.0249 µM) | >10 | 0.22 (≈ 0.548 µM) |  | 
21 | O=C(Nc1ccc(NC(=S)Nc2ccc(F)c(Cl)c2)cc1)c1ccccc1F [Example 972, N-{4-[3-(3-Chloro-4-fluoro-phenyl)-thioureido]-phenyl} -2-fluoro-benzamide] | 0.006 (≈ 0.0144 µM) | > 10 | > 15 |  |  |  |  | 95
22 | CN(C)c1cccc(NC(=S)Nc2ccc(NC(=O)c3ccco3)cc2)c1 [Example 455] |  |  |  | 0.3 (≈ 0.788 µM) | >10 | >10 | 30 | 
23 | COc1cc(OC)c(NC(=S)Nc2ccc(NC(=O)c3ccc(C)s3)cc2)cc1Cl [Example 145] |  |  |  | >10 | 2 (≈ 4.33 µM) | >15 | 51 | 
24 | Nc1c(Cl)cccc1NC(=S)Nc1ccc(NC(=O)c2ccco2)cc1 [Example 446] |  |  |  | 0.7 (≈ 1.81 µM) | 10 (≈ 25.8 µM) | >10 |  | 
25 | CC(=O)Nc1cccc(NC(=S)Nc2ccc(NC(=O)c3ccco3)cc2)c1 [Example 462] |  |  |  | 1 (≈ 2.54 µM) | >10 | >10 | 6 | 
26 | CC(NC(=S)Nc1ccc(NC(=O)c2ccncc2)cc1)c1ccc(F)cc1 (stereo not drawn) [Example 759] |  |  |  | >10 | >10 | 2 (≈ 5.07 µM) |  | 
27 | COc1cc(OC)c(NC(=S)Nc2ccc(NC(=O)c3ccnc4ccccc34)cc2)cc1Cl [Example 225] |  |  |  | >10 | 1 (≈ 2.03 µM) | >10 | 30 | 
28 | O=C(Nc1ccc(NC(=S)Nc2cccc(S(=O)(=O)CCO)c2)cc1)c1ccco1 [Example 1018, Furan-2-carboxylic acid (4-{3-[3-(2-hydroxy-ethanesulfonyl)-phenyl]-thioureido} -phenyl)-amide] | 0.4 (≈ 0.898 µM) | > 10 | > 10 |  |  |  |  | 2
29 | O=C(Nc1ccc(NC(=S)Nc2cccc(Br)c2)cc1)c1csnn1 [Example 513] |  |  |  | 0.011 (≈ 0.0253 µM) | >10 | >10 | 10 | 
